The text below walks through data of paper PMC8838787, “The Antiproliferative and Apoptotic Effects of a Novel Quinazoline Carrying Substituted-Sulfonamides: In Vitro and Molecular Docking Study” (Molecules, 2022).

Assay type in all cases: cell-based, human
The subject of assay [1] is MCF-7 (breast) cancer cells. The assay can be described thus: MTT cell viability assay, MCF-7. To be noted: Homo sapiens, MCF7, 48 h, average ± SD (n = 3). Here is the method:
Compounds 4a–n were subjected to the cytotoxicity screening of the cell lines MCF-7 (breast), LoVo (colon), HepG2 (liver) and A549 (lung) carcinoma cells as well as HUVEC normal cell lines. The MTT assay was employed to assess cytotoxicity after 48 h of treatment with different concentrations of each compound and doxorubicin was used as a reference drug. The results were presented in Table 1 as growth inhibitory concentration (IC50 values).
Cell viability was determined using 3-(4,5-dimethylthiazol-2-yl)-2,5-diphenyl tetrazolium bromide (MTT) assay as stated previously. In brief, A549 (lung), HepG2 (liver), LoVo (colon), MCF-7 (breast) cancer cells as well as normal cells (HUVEC) were seeded in 96-well plates (10^5 per well) and compounds were added in a different final concentration. All cells were treated for 48 h, and then 10μL of MTT reagent (5 mg/mL) was added to each well and further incubated for 4 h. Thereafter, 0.1 mL of acidified isopropanol was added to solubilize formazan product and the developed color was measured at 570 nm in Microplate ELISA Reader (BioTek, Elx-800, Winooski, VT, USA). The IC50 values (concentration required for 50% inhibition of cell viability) were calculated using dose response curve. Cell viability was calculated as = (Ab Treated/Ab Control) × 100.
The A549, HepG2, LoVo and MCF-7 cancer cell lines were obtained from the German Collection of Microorganisms and Cell Cultures (DSMZ) (Braunschweig, Germany). For Human umbilical vein endothelial cells (HUVEC cells), it was purchased from American Type Culture Collection (16549; Cat no. PCS-100-010; ATTCC, Manassas, VA, USA).
On the technique in general: Tetrazolium assays rely on reduction of a dye to a coloured formazan, in cell work by metabolically active cells.

The subject of another assay is Bax. The assay can be described thus: RT-PCR of apoptotic genes, Bax. The note with it: 24 h, vs control, normalized to β-actin. From the text: We next used reverse transcription polymerase chain reaction (RT-PCR) and Western blot analysis to look at Bax (proapoptotic), Bcl-2 (antiapoptotic) and caspase 7 (executioner caspase) expression at gene and protein level as an additional marker of apoptosis occurrence. In fact, apoptotic cell death is mostly directed by the levels of Bcl-2 family, whether they are pro-apoptotic or antiapoptotic and targeting these molecules as a therapeutic strategy is continuously under development. As predicted, we observed an upregulation in the expression of Bax in MCF-7 treated cells to (1.7-, 2- and 2.4-fold) with compound 4d and to (1.2-, 1.4- and 1.6-fold) with compound 4f at (1.25, 2.5 and 5 µM) respectively (Figure 6). […] This shifting in Bax to Bcl-2 ratio usually started caspases activation which plays a critical role in apoptosis execution. Among all caspases, caspase 7 is considered as one of the most crucial executioner caspases that mediate cell death, and its expression strongly correlates with apoptosis stimulation.
The MCF-7 cells (0.1 × 10^6) in 12 well plates were treated with different concentrations of compounds 4d and 4f for 24 h and untreated cells were used as a control. After 24 h of treatment, cell culture media was removed and the cells were lysed with Trizol (Invitrogen, Waltham, MA, USA), and total RNA was extracted from all the samples [42]. The RNA was estimated by Nano-drop and 1 µg of RNA was used in the cDNA synthesis. The cDNA was synthesized from RNA by using a cDNA synthesis kit (Invitrogen, Thermo Fisher Scientific, lnc., Waltham, MA, USA) according to the manufacturer’s instruction. After Reverse transcription at 42 °C for 60 min, RT-PCR was performed using 5× Firepol Master Mix ready to load (Solis BioDyne) according to manufacturer’s instruction. RT-PCR was used to analyze the gene expression level of P53, Bcl2, Bax and caspase 7 using specific sets of primers for each gene, while β-actin was utilized as a housekeeping gene. The program was run as follows, initial denaturation at 95 °C for 5 min; denaturation at 95 °C for 30 s; annealing at 55 °C for 45 s; elongation at 72 °C for 45 s (30 Cycles) and final extension at 72 °C for 10 min. The RT-PCR products were electrophoresed on a 1.2% agarose gel containing ethidium bromide and the gel was imaged on a Licor machine.

In the next assay the test system is MCF-7 cells. The assay can be described thus: Cell cycle analysis by PI staining and flow cytometry. The note with it: 24 h, mean ± SD, control 57.91 ± 0.61%. Here is the method:
Indeed, designing of new chemotherapeutic drugs targeting cell cycle progression and apoptosis is considered as an attractive strategy. To explore the antiproliferative effect of compounds 4d and 4f, cell-cycle analysis was performed in MCF-7 cells were examined. The cells were treated with various concentrations of both compound for 24 h, stained with propidium iodide (PI) and analyzed by flow cytometry. As shown in (Figure 2), the incubation of MCF-7 cells with (1.25, 2.5, and 5 μM) of compound 4d for 24 h increased the percentage of cells at G1 (from 57.91 ± 0.61% in control) to 62.51 ± 0.14%, 64.95 ± 0.21% and 66.55 ± 0.78% in treated cells, respectively.
Cell cycle distribution was evaluated by PI staining as previously described. Briefly, MCF-7 cells were seeded and incubated for a period of 24 h to allow for attachment. Subsequently, cells were exposed to different concentrations of compounds 4d and 4f. After 24 h, cells were harvested and fixed in 70% ethanol. Thereafter, cells were washed with PBS, resuspended in 1 mL of PBS containing PI (50 μg/mL), RNase A (0.5 mg/mL), sodium citrate (0.1%) and Triton X-100 (0.1%), then incubated for 15 min in the dark at room temperature. Flow cytometry was carried out by a FACS Scan Flow Cytometer (Cytomics FC 500; Beckman Coulter, Brea, CA, USA). The data were analyzed using CXP software V. 3.0.
In general terms: Flow cytometry measures light scatter and fluorescence of single cells or particles in a stream.

For the compound `CCc1cccc(NC(=O)CNS(=O)(=O)c2ccc(-n3c(SCC(=O)Nc4cccc(CC)c4)nc4c(OC)cccc4c3=O)cc2)c1` [Compound 4f, N-(3-ethylphenyl)-2-((3-(4-(N-(2-((3-ethylphenyl)amino)-2-oxoethyl)sulfamoyl)-phe-nyl)-8-methoxy-4-oxo-3,4-dihydroquinazolin-2yl)thio)acetamide], the IC50 (in general, the concentration that gives 50% inhibition) in assay [1] stood at 5 ± 0.24 µM. Further, the “expression of Bax (RT-PCR)” value is 1.2 fold with Bax (MCF-7, 1.25 µM); 1.4 fold in the assay on Bax (MCF-7, 2.5 µM); 1.6 fold in the assay on Bax (MCF-7, 5 µM). The “percentage of cells at G1” value in the assay on MCF-7 cells (1.25 μM) is reported as 61.65 ± 0.21%; with MCF-7 cells (2.5 μM) it was 62.65 ± 0.35%; with MCF-7 cells (5 μM), 65.15 ± 0.36%.

As to `COc1cccc2c(=O)n(-c3ccc(S(=O)(=O)NCC(=O)Nc4ccc(C)cc4)cc3)c(SCC(=O)Nc3ccc(C)cc3)nc12` [Compound 4d], the midpoint of inhibition in assay [1], the IC50, lay at 2.5 ± 0.2 µM. Further, the “expression of Bax (RT-PCR)” value in the assay with Bax (MCF-7, 1.25 µM) amounted to 1.7 fold; in the assay on Bax (MCF-7, 2.5 µM) it was 2 fold; in the assay on Bax (MCF-7, 5 µM), 2.4 fold. For the same compound, the figures for the “percentage of cells at G1” value in the assay with MCF-7 cells (1.25 μM), in the assay with MCF-7 cells (2.5 μM) and in the assay on MCF-7 cells (5 μM) were 62.51 ± 0.14%, 64.95 ± 0.21% and 66.55 ± 0.78%, respectively.
